Reference: US20240083910A1, “AMIDO-SUBSTITUTED PYRIDYL COMPOUNDS AND METHODS OF USE THEREOF FOR THE TREATMENT OF HERPESVIRUSES” (Merck Sharp & Dohme LLC, priority 2020, published 2024)
Where two headings read alike, the source gives them in different places.

Tests used:
[1] = system: VZV; assay: Viral qPCR assay, VZV; type: cell-based, varicella zoster virus; details: MeWo or MRC5 cells, 0.04-0.1 pfu/cell, growth medium, viral genome copies by qPCR
Experimental: (§1) MRC5 cells, Vero cells, and MeWo cells were obtained from ATCC, and were maintained at 37° C./5% CO2/90% relative humidity in Minimal Essential Medium with 10% fetal bovine serum, […] L-glutamine, 100 units/ml penicillin and 100 ug/ml streptomycin. Assay plates were prepared by dispensing compounds dissolved in DMSO into wells of 384 well collagen-coated plates using an ECHO acoustic dispenser. Each compound was tested in a 10-point, serial 3-fold dilution. Controls included uninfected cells and infected cells treated only with DMSO. Assays were initiated by mixing selected cells, in suspension, with virus, and dispensing 50 μl/well infected cells to pre-plated compounds. Plates were incubated at 37° C./5% CO2/90% relative humidity for ˜72 hrs to permit genomic replication, and infected cells were lysed by the addition of an equal volume of lysis buffer (10 mM Tris-HCl, pH8, 50 mM KCl, 2 mM MgCl2, 0.45% NP-40, 0.45% Tween-20, and 100 μg/ml proteinase K). An aliquot of the lysate was transferred to a 384-well PCR plate and incubated at 56° C. for 1 hour and then at 95° C. for 10 min. Levels of a viral gene and of the cellular control, PPIA (Thermo Fisher Assay ID=Hs04194521_s1), were measured in separate 10 ul qPCR assays using TaqMan® Gene Expression Master Mix (Applied Biosystems), and an 7900HT Fast Real-Time PCR System with 384-Well Block Module. 7-point, serial 10-fold dilutions of a plasmid standard were run on each plate to generate a standard curve, and genome copies numbers were calculated by plotting experimental Ct onto linear regression of the standard curve. Viral genome copy numbers were normalized by cellular control copy number, and compound effects were normalized to the window defined by the controls. Calculated % effects were fit using a 4-parameter algorithm, and EC50 was reported.
(§2) MRC5 cells, Vero cells, and MeWo cells were obtained from ATCC, and were maintained at 37° C./5% CO2/90% relative humidity in Minimal Essential Medium with 10% fetal bovine serum, […] L-glutamine, 100 units/ml penicillin and 100 ug/ml streptomycin. Assay plates were prepared by dispensing compounds dissolved in DMSO into wells of 384 well collagen-coated plates using an ECHO acoustic dispenser. Each compound was tested in a 10-point, serial 3-fold dilution. Controls included uninfected cells and infected cells treated only with DMSO. Assays were initiated by mixing selected cells, in suspension, with virus, and dispensing 50 μl/well infected cells to pre-plated compounds. Plates were incubated at 37° C./5% CO2/90% relative humidity for ˜72 hrs to permit genomic replication, and infected cells were lysed by the addition of an equal volume of lysis buffer (10 mM Tris-HCl, pH 8, 50 mM KCl, 2 mM MgC12, 0.45% NP-40, 0.45% Tween-20, and 100 μg/ml proteinase K). An aliquot of the lysate was transferred to a 384-well PCR plate and incubated at 56° C. for 1 hour and then at 95° C. for 10 min. Levels of a viral gene were measured in 10 ul qPCR assays using TaqMan® Gene Expression Master Mix (Applied Biosystems), and an 7900HT Fast Real-Time PCR System with 384-Well Block Module. 7-point, serial 10-fold dilutions of a plasmid standard were run on each plate to generate a standard curve, and genome copies numbers were calculated by plotting experimental Ct onto linear regression of the standard curve. Compound effects on viral genome copy number were normalized to the window defined by the controls. Calculated % effects were fit using a 4-parameter algorithm, and ECso was reported.
VZV: Strain Street was maintained as an infected cell stock in MRC-5 cells. It was assayed in MeWo or MRC5 cells and was used at 0.04-0.1 pfu/cell. The assays were performed in growth medium. Primer-probe set was Thermo Fisher Assay ID=AIPAEXQ.

[2] = molecular target: T1, Human cytomegalovirus DNA polymerase (Human cytomegalovirus, UniProt P08546); assay: CMV polymerase assay (AlphaLISA); type: biochemical; details: HCMV polymerase 0.2 nM; 30 min pre-incubation; 60 min at 37° C.; read-out: CMV (IC50)
T1 construct: made in house; host or cells: SF21 insect cells (baculovirus vector)
T1 sequence (P08546 whole entry): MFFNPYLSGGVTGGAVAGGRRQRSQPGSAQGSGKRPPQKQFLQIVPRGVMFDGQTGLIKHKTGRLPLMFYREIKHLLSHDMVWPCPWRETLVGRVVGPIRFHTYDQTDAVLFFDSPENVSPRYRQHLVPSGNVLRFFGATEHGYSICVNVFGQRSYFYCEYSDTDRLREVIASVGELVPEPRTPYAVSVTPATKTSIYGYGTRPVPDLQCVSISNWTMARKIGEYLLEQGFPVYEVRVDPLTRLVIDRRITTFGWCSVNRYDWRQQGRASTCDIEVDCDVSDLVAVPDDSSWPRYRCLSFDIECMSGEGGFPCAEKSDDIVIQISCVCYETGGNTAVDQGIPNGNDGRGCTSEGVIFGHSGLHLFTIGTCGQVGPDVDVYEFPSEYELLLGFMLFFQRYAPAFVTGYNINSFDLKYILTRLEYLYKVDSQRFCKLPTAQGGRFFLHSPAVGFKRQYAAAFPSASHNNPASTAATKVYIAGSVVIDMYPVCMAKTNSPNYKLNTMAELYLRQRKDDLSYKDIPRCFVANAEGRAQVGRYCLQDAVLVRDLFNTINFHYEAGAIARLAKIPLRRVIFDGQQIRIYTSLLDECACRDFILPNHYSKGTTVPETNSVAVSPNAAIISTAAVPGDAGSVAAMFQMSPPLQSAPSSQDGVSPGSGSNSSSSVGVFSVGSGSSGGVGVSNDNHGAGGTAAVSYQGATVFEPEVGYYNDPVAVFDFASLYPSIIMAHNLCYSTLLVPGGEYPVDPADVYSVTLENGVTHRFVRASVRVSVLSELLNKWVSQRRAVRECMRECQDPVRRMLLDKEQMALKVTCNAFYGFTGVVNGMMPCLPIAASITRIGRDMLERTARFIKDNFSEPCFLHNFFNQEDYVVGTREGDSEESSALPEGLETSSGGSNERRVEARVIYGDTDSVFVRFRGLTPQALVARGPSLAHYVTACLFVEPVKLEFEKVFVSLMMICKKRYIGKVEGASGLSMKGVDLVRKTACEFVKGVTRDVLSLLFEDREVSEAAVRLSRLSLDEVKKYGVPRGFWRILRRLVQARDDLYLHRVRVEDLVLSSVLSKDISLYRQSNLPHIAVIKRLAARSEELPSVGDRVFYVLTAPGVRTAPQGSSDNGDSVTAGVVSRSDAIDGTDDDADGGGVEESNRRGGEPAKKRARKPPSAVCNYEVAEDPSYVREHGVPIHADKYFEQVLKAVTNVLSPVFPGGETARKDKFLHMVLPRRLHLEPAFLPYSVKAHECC
Experimental: Human cytomegalovirus and varicella zoster virus DNA polymerases were expressed via baculovirus vector in SF21 cells and purified. Heterodimeric nucleic acid substrate used in the herpesvirus polymerase reactions was generated by annealing a 59-mer template to a 17-mer digoxigenin-labeled primer. Polymerase (HCMV final concentration of 0.2 nM; VZV final concentration of 0.4 nM) was combined with an inhibitor compound or DMSO in assay buffer (10 mM HEPES, pH 7.5, 25 mM KCl, 25 mM NaCl, 5 mM MgCl2, 5% glycerol, 0.67 mg/ml bovine serum albumin, and 1 mM tris(2-carboxyethyl)phosphine), and this mixture was pre-incubated for 30 minutes at room temperature in 384-well microtiter plates. The polymerization reaction was initiated by the addition of template/primer substrate (final concentration: 1.6 nM), and dNTPs (final concentration: 24 nM dCTP, 24 nMdGTP, 16 nM dATP, 16 nM dTTP, and 0.8 nM biotin-dUTP). After 60 min incubation at 37° C., reactions were terminated with quench buffer (25 mM HEPES pH 7.5, 100 mM NaCl, 0.25% Tween-20, 12 mM EDTA, and 1 mg/ml bovine serum albumin). Incorporation of biotinylated UTP was detected with 2.5-5 ug/ml anti-DIG AlphaLISA acceptor beads and 5-10 ug/ml streptavidin AlphaLISA donor beads (PerkinElmer). Compound effects were normalized to the window defined by the controls (DMSO only and pre-quenched wells) and were fit using a 4-parameter algorithm to report an IC50.

[3] = system: HCMV Strain AD169; assay: Viral qPCR assay, HCMV; type: cell-based, Human cytomegalovirus; details: MRC-5 cells, 0.05-0.1 pfu/cell, growth media or 50% fetal bovine serum, viral genome copies by qPCR, read-out: CMV Cell (EC50)
Experimental: as §1, §2
HCMV: Strain AD169 Street was assayed in MRC-5 cells and was used at 0.05-0.1 pfu/cell. The assays were performed in either growth media or in the same media with 50% fetal bovine serum. Primer-probe set was Thermo Fisher Assay ID=AIFATFK.

[4] = system: HSV-1 Strain F; assay: Viral qPCR assay, HSV-1; type: cell-based, Herpes Simplex Virus type 1; details: Vero or MRC5 cells, 0.0005-0.004 pfu/cell, growth medium, viral genome copies by qPCR, read-out: HSV1 Cell (EC50)
Experimental: as §1, §2
HSV-1: Strain F […] was assayed in Vero or MRC5 cells and was used at 0.0005-0.004 pfu/cell in growth medium. Primer-probe set was Thermo Fisher Assay ID=AIBJZIB

[5] = Human betaherpesvirus 5, AD169, MRC5, 72 h

IC50 [2] | Structure (SMILES) | EC50 ([1]; Human alphaherpesvirus 3, 72 h) | EC50 [3, 5] | EC50 ([4]; Human alphaherpesvirus 1, 72 h) | EC50 ([1]; ~72 hrs) | EC50 ([3]; ~72 hrs) | EC50 ([4]; ~72 hrs)
18 nM | COc1nc(-c2occc2C=O)c(O[C@H]2CCN3C(=O)OC[C@@H]3C2)cc1C(=O)NCc1ccc(Cl)cc1 [Compound 23] | 117 nM | 140 nM | 87.4 nM | – | – | –
22.9 nM | COc1nc(N2CCC(C(C)(C)O)C2)c(O[C@H]2CCN3C(=O)OC[C@@H]3C2)cc1C(=O)NCc1ccc(Cl)cc1 (stereo partly shown) [Compound 67] | – | 368 nM | 568 nM | 2270 nM | – | –
0.705 nM | COc1nc(-c2cnn(CCO)c2)c(O[C@H]2CCN3C(=O)OC[C@@H]3C2)cc1C(=O)NCc1ccc(Cl)cc1 [Compound 32] | 106 nM | 103 nM | 52 nM | – | – | –
7.31 nM | CC(C)(C#N)COc1nc(-c2cnn(C(F)F)c2)c(O[C@H]2CCN3C(=O)OC[C@@H]3C2)cc1C(=O)NCc1ccc(Cl)cc1 [Compound 92] | 417 nM | 137 nM | 229 nM | – | – | –
5.13 nM | CCn1cc(-c2nc(OC)c(C(=O)NCc3ccc(Cl)cc3)cc2O[C@H]2CCN3C(=O)OC[C@@H]3C2)cn1 [Compound 31] | 102 nM | 175 nM | 103 nM | – | – | –
6.13 nM | COc1nc(-c2cnn(C(F)F)c2)c(O[C@H]2CCN3C(=O)OC[C@@H]3C2)cc1C(=O)NCc1cc(F)c(Cl)c(F)c1 [Compound 57] | 364 nM | 538 nM | 207 nM | – | – | –
5.36 nM | COc1nc(-c2cc[nH]c2)c(O[C@H]2CCN3C(=O)OC[C@@H]3C2)cc1C(=O)NCc1ccc(Cl)cc1 [Compound 28] | 196 nM | 200 nM | 103 nM | – | – | –
3.16 nM | CN(C)CCOc1nc(-c2cnn(C(F)F)c2)c(O[C@H]2CCN3C(=O)OC[C@@H]3C2)cc1C(=O)NCc1ccc(Cl)cc1 [Compound 88] | 317 nM | 32.5 nM | 257 nM | – | – | –
33.6 nM | COc1nc(-c2cc3nccnc3[nH]2)c(O[C@H]2CCN3C(=O)OC[C@@H]3C2)cc1C(=O)NCc1ccc(Cl)cc1 [Compound 27] | 859 nM | 556 nM | 648 nM | – | – | –
3.25 nM | COc1nc(-c2cnn(C(F)F)c2)c(O[C@H]2CCN3C(=O)OC[C@@H]3C2)cc1C(=O)NCc1ccc(C#N)cc1F [Compound 59] | 160 nM | 324 nM | 80.6 nM | – | – | –
2.3 nM | COc1nc(-c2cnc(N)nc2)c(O[C@H]2CCN3C(=O)OC[C@@H]3C2)cc1C(=O)NCc1ccc(Cl)cc1 [Compound 45] | 141 nM | 111 nM | 50 nM | – | – | –
81.5 nM | COc1nc(-c2ccc3[nH]ccc3c2)c(O[C@H]2CCN3C(=O)OC[C@@H]3C2)cc1C(=O)NCc1ccc(Cl)cc1 [Compound 39] | 1360 nM | 886 nM | 658 nM | – | – | –
5.23 nM | COc1nc(N2CC3(CC(O)C3)C2)c(O[C@H]2CCN3C(=O)OC[C@@H]3C2)cc1C(=O)NCc1ccc(Cl)cc1 [Compound 66] | 648 nM | 146 nM | 262 nM | – | – | –
20.9 nM | COc1nc(-c2ccsc2)c(O[C@H]2CCN3C(=O)OC[C@@H]3C2)cc1C(=O)NCc1ccc(Cl)cc1 [Compound 21] | 417 nM | 500 nM | 377 nM | – | – | –
14.1 nM | CN1CCN(CCCOc2nc(-c3cnn(C(F)F)c3)c(O[C@H]3CCN4C(=O)OC[C@@H]4C3)cc2C(=O)NCc2ccc(Cl)cc2)CC1 [Compound 98] | 617 nM | 115 nM | 290 nM | – | – | –
32.1 nM | COc1nc(C2CC3(CC(O)C3)C2)c(O[C@H]2CCN3C(=O)OC[C@@H]3C2)cc1C(=O)NCc1ccc(Cl)cc1 (stereo partly shown) [Compound 76] | 778 nM | 519 nM | 293 nM | – | – | –
31.2 nM | COc1nc(-c2csc(-n3cccn3)n2)c(O[C@H]2CCN3C(=O)OC[C@@H]3C2)cc1C(=O)NCc1ccc(Cl)cc1 [Compound 29] | 368 nM | 514 nM | 246 nM | – | – | –
20.3 nM | COc1nc(-c2cnn(C(C)(C)C)c2)c(O[C@H]2CCN3C(=O)OC[C@@H]3C2)cc1C(=O)NCc1ccc(Cl)cc1 [Compound 11] | 1270 nM | 653 nM | 456 nM | – | – | –
1.46 nM | CN(C)CCCOc1nc(-c2cnn(C(F)F)c2)c(O[C@H]2CCN3C(=O)OC[C@@H]3C2)cc1C(=O)NCc1ccc(Cl)cc1 [Compound 95] | 463 nM | 151 nM | 141 nM | – | – | –
10.4 nM | COc1nc(-c2ccncc2)c(O[C@H]2CCN3C(=O)OC[C@@H]3C2)cc1C(=O)NCc1ccc(Cl)cc1 [Compound 42] | 130 nM | 194 nM | 79.8 nM | – | – | –

Structure (SMILES) | IC50 [2] | EC50 ([1]; Human alphaherpesvirus 3, 72 h) | EC50 [3, 5] | EC50 ([4]; Human alphaherpesvirus 1, 72 h) | EC50 ([1]; ~72 hrs) | EC50 ([3]; ~72 hrs) | EC50 ([4]; ~72 hrs)
COc1nc(C2CC2O)c(O[C@H]2CCN3C(=O)OC[C@@H]3C2)cc1C(=O)NCc1ccc(Cl)cc1 (single isomer, unassigned) [Compound 79] | 28.7 nM | – | – | – | 463 nM | 337 nM | 518 nM
COc1nc(C2CC2O)c(O[C@H]2CCN3C(=O)OC[C@@H]3C2)cc1C(=O)NCc1ccc(Cl)cc1 (single isomer, unassigned) [Compound 78] | 49 nM | – | – | 644 nM | 1850 nM | 616 nM | –
